These results are taken from patent US9017645B2, “Homoglutamic acid derivatives” (Piramal Imaging SA, priority 2009, dated 2015).

For this experiment, the system named is H460 cells. Put plainly: Cell-competition experiment: uptake of radiolabeled glutamic acid derivative into tumor cells. The format is cell-based, human. The note with it: competitor 1 mM and 0.1 mM, 30 min incubation in PBS. As to the method: FIG. 7: Biological activity of (2S)-2-Amino-5-(4-cyano-3-fluorobenzyl)hexanedioic acid in a cell-competition-experiment (H460 cells, 30 min incubation with radiolabeled glutamic acid derivative in PBS-Puffer, concentration of competitor 1 mM and 0.1 mM).
The ability of (2S)-2-Amino-5-(4-cyano-3-fluorobenzyl)hexanedioic acid to compete with uptake of glutamic acid derivatives into tumor cells was examined. Therefore, tumor cells were co-incubated with a radiolabeled glutamic acid derivative and (2S)-2-Amino-5-(4-cyano-3-fluorobenzyl)hexanedioic acid. This compounds was used in large excess to the tracer. Two concentrations were examined (1 mM an 0.1 mM).

Consider `N#Cc1ccc(CC(CC[C@H](N)C(=O)O)C(=O)O)cc1F` (stereo partly drawn) [(2S)-2-Amino-5-(4-cyano-3-fluorobenzyl)hexanedioic acid], for which the “uptake of radiolabeled glutamic acid derivative into tumor cells (competition)” value is listed as “strongly reduces the uptake”.
